Source: patent EP0943615A1, “1,4-DIHYDROPYRIDINE DERIVATIVES” (Nikken Chemicals Company, Limited, priority 1996, dated 1998)

Tested on: VJ-300 cells
Test: In vitro test of action suppressing proliferation of cancer cells, combined administration of doxorubicin (colony formation), resistant cells
Assay type: cell-based, Human
Conditions: ADM alone or ADM + test compound 1 µg/ml, LD50 of ADM relative to ADM alone in KB cells = 1, 7 days incubation, colony count
Procedure: Human rhinopharynx cancer derived KB cells (i.e., sensitive cells) and their multi-drug resistant clone VJ-300 cells (i.e., resistant cells) were used as the test cells. As the incubation solutions, use was made of 10% fetal calf serum (Flow Laboratories) and Eagle MEM medium (Nissui Seiyaku) containing 0.292 mg/ml of L-glutamine (Flow Laboratories). The tests of the action for overcoming resistance to anti-cancer drugs or action for increasing the effect of the anti-cancer drug with the combined administration of the anti-cancer drug doxorubicin (i.e., adriamycin, ADM) and the test compound were performed as follows:
The test cells were suspended in incubation solutions and adjusted to a cell density of about 200 cells/ml. The cell suspensions were injected in 2 ml amounts into petri dishes and were incubated in a CO2 gas incubator (5% CO2, 95% air) at 37°C for 24 hours. Then, 5 µl of a predetermined concentration of the aqueous ADM solution and a predetermined concentration of a DMSO solution of the test compound were added, then the incubation was continued for a further 7 days. After the end of the incubation, the result was immobilized with methanol, Giemsa stained and measured for the number of colonies per dish. The results were used to prepare a volume-reaction curve. […] The results are shown in Table 8 to Table 10 using the concentration of LD50 of ADM in the ADM alone group by KB cells as the resistance degree 1 and calculating the resistances of the following LD50 concentrations as relative ratios. […]

Structure (SMILES)	Degree of resistance for ADM VJ-300
COc1cccc2c1C(=O)c1c(O)c3c(c(O)c1C2=O)C[C@@](O)(C(=O)CO)C[C@@H]3O[C@H]1C[C@H](N)[C@H](O)[C@H](C)O1 [ADM, doxorubicin, reference compound]	26 - 51
CCCCCC1C(C(=O)OCC=Cc2cccnc2)=C(C)NC(c2ccc(-n3c(C)nc4ncccc43)cc2)=C1C(=O)OCC (stereo not shown) [Compound 4, 6-methyl-2-[4-(2-methylimidazo[4,5-b]pyridin-1-yl)phenyl]-4-pentyl-1,4-dihydropyridin-3,5-dicarboxylate 3-ethylester, 5-[3-(3-pyridyl)-2-propenyl]ester]	1.2
CCCCCC1C(C(=O)OCCCN2CCN(C(c3ccccc3)c3ccccc3)CC2)=C(C)NC(c2ccc(-n3c(C)nc4ncccc43)cc2)=C1C(=O)OCC (stereo not shown) [Compound 5, 6-methyl-2-[4-(2-methylimidazo[4,5-b]pyridin-1-yl)phenyl]-4-pentyl-1,4-dihydropyridin-3,5-dicarboxylate 3-ethylester, 5-[3-(4-benzhydrylpiperadin-1-yl)propyl]ester]	4.6
CCCCC1C(C(=O)OCCCc2cccnc2)=C(C)NC(c2ccc(-n3c(C)nc4cnccc43)cc2)=C1C(=O)OCC (stereo not shown) [Compound 6, 4-butyl-6-methyl-2-[4-(2-methylimidazo[4,5-c]pyridin-1-yl)phenyl]-1,4-dihydropyridin-3,5-dicarboxylate 3-ethylester, 5-[3-(3-pyridyl)propyl]ester]	2.8
CCCCCC1C(C(=O)OCCCc2cccnc2)=C(C)NC(c2ccc(-n3c(C)nc4cnccc43)cc2)=C1C(=O)OCC (stereo not shown) [Compound 7, 6-methyl-2-[4-(2-methylimidazo[4,5-c]pyridin-1-yl)phenyl]-4-pentyl-1,4-dihydropyridin-3,5-dicarboxylate 3-ethylester, -5-[3-(3-pyridyl)propyl]ester]	2.8
CCOC(=O)C1=C(c2ccc(-n3c(C)nc4cnccc43)cc2)NC(C)=C(C(=O)OCCCc2cccnc2)C1CC(C)(C)C (stereo not shown) [Compound 8, 4-(2,2-dimethylpropyl)-6-methyl-2-[4-(2-methylimidazo[4,5-c]pyridin-1-yl)phenyl]-1,4-dihydropyridin-3,5-dicarboxylate 3-ethylester, 5-[3-(3-pyridyl)propyl]ester]	1.3
CCOC(=O)C1=C(c2ccc(-n3c(C)nc4cnccc43)cc2)NC(C)=C(C(=O)OCCCc2cccnc2)C1C1CCCCC1 (stereo not shown) [Compound 9, 4-cyclohexyl-6-methyl-2-[4-(2-methylimidazo[4,5-c]pyridin-1-yl)phenyl]-1,4-dihydropyridin-3,5-dicarboxylate 3-ethylester, 5-[3-(3-pyridyl)propyl]ester]	2.9
CCOC(=O)C1=C(c2ccc(-n3c(C)nc4cnccc43)cc2)NC(C)=C(C(=O)OCCCc2cccnc2)C1CC(C)C (stereo not shown) [Compound 10, 6-methyl-2-[4-(2-methylimidazo[4,5-c]pyridin-1-yl)phenyl]-4-(2-methylpropyl)-1,4-dihdropyridin-3,5-dicarboxylate 3-ethylester, 5-[3-(3-pyridyl)propyl]ester]	1.4
CCOC(=O)C1=C(c2ccc(-n3c(C)nc4cnccc43)cc2)NC(C)=C(C(=O)OCCCc2cccnc2)C1C=C(C)C (stereo not shown) [Compound 11, 6-methyl-2-[4-(2-methylimidazo[4,5-c]pyridin-1-yl)phenyl]-4-(2-methyl-1-propenyl)-1,4-dihydropyridin-3,5-dicarboxylate 3-ethylester, 5-[3-(3-pyridyl)propyl]ester]	3.2
CCOC(=O)C1=C(c2ccc(-n3c(C)nc4cnccc43)cc2)NC(C)=C(C(=O)OCCCc2cccnc2)C1Cc1ccccc1 (stereo not shown) [Compound 12, 4-benzyl-6-methyl-2-[4-(2-methylimidazo[4,5-c]pyridin-1-yl)phenyl]-1,4-dihydropyridin-3,5-dicarboxylate 3-ethylester, 5-[3-(3-pyridyl)propyl]ester]	6.5
CCOC(=O)C1=C(c2ccc(-n3c(C)nc4cnccc43)cc2)NC(C)=C(C(=O)OCCCc2cccnc2)C1CCc1ccccc1 (stereo not shown) [Compound 13, 6-methyl-2-[4-(2-methylimidazo[4,5-c]pyridin-1-yl)phenyl]-4-(2-phenylethyl)-1,4-dihydropyridin-3,5-dicarboxylate 3-ethylester, 5-[3-(3-pyridyl)propyl]ester]	2.6
CCOC(=O)C1=C(c2ccc(-n3c(C)nc4cnccc43)cc2)NC(C)=C(C(=O)OCCCc2cccnc2)C1/C=C/c1ccccc1 (stereo not shown) [Compound 14, 6-methyl-2-[4-(2-methylimidazo[4,5-c]pyridin-1-yl)phenyl]-4-[(E)-2-phenylethenyl]-1,4-dihydropyridin-3,5-dicarboxylate 3-ethylester, 5-[3-(3-pyridyl)propyl]ester]	1.3
CCCCCC1C(C(=O)OCCCCCc2cccnc2)=C(C)NC(c2ccc(-n3c(C)nc4cnccc43)cc2)=C1C(=O)OCC (stereo not shown) [Compound 17, 6-methyl-2-[4-(2-methylimidazo[4,5-c]pyridin-1-yl)phenyl]-4-pentyl-1,4-dihydropyridin-3,5-dicarboxylate 3-ethylester, 5-[5-(3-pyridyl)pentyl]ester]	1.6
CCOC(=O)C1=C(c2ccc(-n3c(C)nc4cnccc43)cc2)NC(C)=C(C(=O)OCCCCCc2cccnc2)C1CCc1ccccc1 (stereo not shown) [Compound 18, 6-methyl-2-[4-(2-methylimidazo[4,5-c]pyridin-1-yl)phenyl]-4-(2-phenylethyl)-1,4-dihydropyridin-3,5-dicarboxylate 3-ethylester, 5-[5-(3-pyridyl)pentyl]ester]	1.4
CCCCCC1C(C(=O)OC/C=C(/c2cccnc2)c2cccs2)=C(C)NC(c2ccc(-n3c(C)nc4cnccc43)cc2)=C1C(=O)OCC (stereo not shown) [Compound 19, 6-methyl-2-[4-(2-methylimidazo[4,5-c]pyridin-1-yl)phenyl]-4-pentyl-1,4-dihydropyridin-3,5-dicarboxylate 3-ethylester, 5-[(Z)-3-(3-pyridyl)-3-(2-thienyl)-2-propenyl]ester]	1.2
CCOC(=O)C1=C(c2ccc(-n3c(C)nc4cnccc43)cc2)NC(C)=C(C(=O)OC/C=C(/c2cccnc2)c2cccs2)C1CCc1ccccc1 (stereo not shown) [Compound 20, 6-methyl-2-[4-(2-methylimidazo[4,5-c]pyridin-1-yl)phenyl]-4-(2-phenylethyl)-1,4-dihydropyridin-3,5-dicarboxylate 3-ethylester, 5-[(Z]-3-(3-pyridyl)-3-(2-thienyl)-2-propenyl]ester]	1.6
CCOC(=O)C1=C(c2ccc(-n3c(C)nc4cnccc43)cc2)NC(C)=C(C(=O)OCCCCCc2cccnc2)C1/C=C/c1ccccc1 (stereo not shown) [Compound 21, 6-methyl-2-[4-(2-methylimidazo[4,5-c]pyridin-1-yl)phenyl]-4-[(E)-2-phenylethenyl]-1,4-dihydropyridin-3,5-dicarboxylate 3-ethylester, 5-[5-(3-pyridyl)pentyl]ester]	1.1
CCOC(=O)C1=C(c2ccc(-n3c(C)nc4ncccc43)cc2)NC(C)=C(C(=O)OC/C=C/c2cccnc2)C1/C=C/c1ccccc1Cl (stereo not shown) [Compound 22, 4-[(E)-2-(2-chlorophenyl]ethenyl]-6-methyl-2-[4-(2-methylimidazo[4,5-b]pyridin-1-yl)phenyl]-1,4-dihydropyridin-3,5-dicarboxylate 3-ethylester, 5-[(E)-3-(3-pyridyl)-2-propenyl]ester]	1.7
CCOC(=O)C1=C(c2ccc(-n3c(C)nc4cnccc43)cc2)NC(C)=C(C(=O)OC/C=C/c2cccnc2)C1/C=C/c1ccccc1 (stereo not shown) [Compound 25, 6-methyl-2-[4-(2-methylimidazo[4,5-c]pyridin-1-yl)phenyl]-4-[(E)-2-phenylethenyl]-1,4-dihydropyridin-3,5-dicarboxylate 3-ethylester, 5-[(E)-3-(3-pyridyl)-2-propenyl]ester]	1.1
CCOC(=O)C1=C(c2ccc(-n3c(C)nc4cnccc43)cc2)NC(C)=C(C(=O)OC/C=C/c2cccnc2)C1CCc1ccsc1 (stereo not shown) [Compound 26, 6-methyl-2-[4-(2-methylimidazo[4,5-c]pyridin-1-yl)phenyl]-4-[2-(3-thienyl)ethyl)-1,4-dihydropyridin-3,5-dicarboxylate 3-ethylester, 5-[(E)-3-(3-pyridyl)-2-propenyl]ester]	1.8
CCOC(=O)C1=C(c2ccc(-n3c(C)nc4cnccc43)cc2)NC(C)=C(C(=O)OC/C=C/c2cccnc2)C1/C=C/c1ccoc1 (stereo not shown) [Compound 27, 4-[(E]-2-(3-furyl)ethenyl]-6-methyl-2-[4-(2-methylimidazo[4,5-c]pyridin-1-yl)phenyl]-1,4-dihydropyridin-3,5-dicarboxylate 3-ethylester, 5-[(E)-3-(3-pyridyl)-2-propenyl]ester]	8.7
CCOC(=O)C1=C(c2ccc(-n3c(C)nc4cnccc43)cc2)NC(C)=C(C(=O)OC/C=C/c2cccnc2)C1CCC1CCCCC1 (stereo not shown) [Compound 28, 4-(2-cyclohexylethyl)-6-methyl-2-[4-(2-methylimidazo[4,5-c]pyridin-1-yl)phenyl]-1,4-dihydropyridin-3,5-dicarboxylate 3-ethylester, 5-[(E)-3-(3-pyridyl)-2-propenyl]ester]	1.7
